In patent US6395473B1, “Adenoviral based promoter assay” (Merck & Co., Inc., priority 1998, dated 2002):

Tested on: rat glutathione S-transferase Ya subunit promoter
Assay: CAT reporter activity induction in HepG2 cells carrying the rat GST Ya promoter/CAT construct
Assay type: cell-based
Conditions: HepG2 cells infected with pdelE1sp1B-1.6CAT, a-NF 50 mM
Description: DNA coding for a promoter/reporter rat glutathione S-transferase Ya subunit 1.6 kb promoter sequence positioned upstream of the chloramphenicol acetyltransferase reporter gene was cloned into the adenovirus shuttle vector pdelE1sp1B, whereby the E1B genome of the adenovirus is deleted and replaced. Successful construction of the shuttle vector, pdelE1sp1B-1.6CAT was verified by both restriction mapping and by sequencing across the 5′- and 3′-ends of the cloning sites. In addition, the shuttle vector was tested functionally in HepG2 cells for regulation of expression of CAT by a-napthoflavone ([…]).
HepG2 cells were seeded in 12- or 24-well plates at a density of 60-70% confluence. Cells were infected the following day with Ad1.6CAT (9.7×10^8 pfu/ml) at an MOI of 5 for 1 h. At the end of the infection period the virus was removed, the cells were rinsed once with PBS, and fresh media was placed on the cells. […]
HepG2 cells were harvested at various time points following induction of CAT expression. […] CAT activity determined by the method of Gorman et al. using 10 ug of protein for 60 minute at 37° C. Acetylated products of chloramphenicol were extracted with mixed xylenes and quantitated by liquid scintillation counting. Results were expressed as fold induction versus control.

O=c1cc(-c2ccccc2)oc2c1ccc1ccccc12 [a-NF, a-napthoflavone]
Induction of CAT activity (fold induction versus control) (after 24 hours): approximately 45 fold | Induction of CAT activity (fold induction versus control) (after 48 hours): approximately 85 fold
